Data: US20240262835A1, “PRMT5 INHIBITING COMPOUNDS AND USES THEREOF” (ANTENGENE DISCOVERY LIMITED, priority 2023, published 2024)

What was measured:
[1] = Hepatic metabolic stability (HMS) assay, human hepatocytes; conditions: human, cryopreserved hepatocytes
Method: 1) 10 mM test compounds were provided.
(§13) 2) 30 mM positive control stock solutions: Dissolved accurate amount of positive control compounds in dimethyl sulfoxide (DMSO).
(§14) 3) 1000× Stock Solution: Diluted 10 mM test compounds and 30 mM positive control compounds to 1 mM and 3 mM with DMSO in 96-well plates.
(§15) 4) 100× Dosing Solution: Diluted 1 mM test compounds and 3 mM positive control compounds to 100 μM and 300 μM dosing solutions with ACN.
(§16) 5) Preparation of 0.5×10^6/mL cells suspension: cryopreserved cells were thawed, isolated and suspended in Incubation Medium, then diluted with pre-warmed Incubation Medium to 0.5×10^6 cells/mL.
(§17) 6) Add 198 μL of pre-warmed cell suspensions in 96-well plates.
(§18) 7) Preparation of Quenching Plate: Transfer 125 μL of stop solution in a set of pre-labeled 96-well plates.
(§19) 8) Spike 2 μL dosing solution to each well of 96-well plates in duplicate.
(§20) 9) For TO Samples, mix to achieve a homogenous suspension for about 1 min, then immediately transfer 25 μL of each sample into well containing 125 μL of ice-cold stop solution followed by mixing.
(§21) 10) Incubate all plates at 37° C. in a 95% humidified incubator at 5% CO2 to start the reactions with constant shaking.
(§22) 11) At 15, 30, 60 and 90 min, mix samples and then transfer 25 μL of each sample at each time point to well containing 125 μL of ice-cold stop solution followed by mixing.
(§23) 12) Medium Control (MC) sample plates (labeled as TO-MC and T90-MC) are prepared in the same way as cell incubation except that medium was used instead of cell suspension.
(§24) 13) At each corresponding time point, stop the reactions by removing the plates from incubator and mixing with 125 μL of ice-cold stop solution.
(§25) 14) Vortex the plates immediately on a plate shaker at 600 rpm for 10 minutes. Then, centrifuge all sample plates at 3220×g for 20 min at 4° C.
(§26) 15) After centrifugation, 80 μL/well of supernatant in the sample plates are transferred to another set of pre-labeled 96-well plates which containing 240 μL of ultra pure water according to the plate map.
(§27) 16) Analytical plates are sealed and store at 4° C. until LC-MS/MS analysis.
(§28) The remaining percents of test articles after incubation were calculated by the follow equations:
(§29) Use the following equation of first order kinetics to calculate T1/2 and CLint:

in vitro [2] = conditions: human, microsomes
[3] = Hepatic metabolic stability (HMS) assay, mouse hepatocytes; conditions: mouse, cryopreserved hepatocytes
Method: 1) 10 mM test compounds were provided.
as §13, §14, §15, §16, §17, §18, §19, §20, §21, §22, §23, §24, §25, §26, §27, §28, §29

[4] = Caco-2 cell monolayer model assay (permeability); type: in vitro ADME; conditions: human
Method: (§1) Caco-2 cell model was used to assess the permeability of the compounds disclosed herein. Caco-2 cell was obtained from the CO-BIOR and the CO-BIOR Number is CBP60025. The cell generation used in the experiment was P9.
(§2) 1) […] of cell culture medium was added to each well of the Transwell reservoir, respectively. And then the PET transwell plates were incubated at 37° C., 5% CO2 for 1 hour before cell seeding.
(§3) 2) Caco-2 cells were diluted to 3.43×10^5 cells/mL with culture medium and 100 μL of cell suspension were dispensed into the filter well of the 96-well PET Transwell plate. Cells were cultivated for 14-18 days in a cell culture incubator at 37° C., 5% CO2, 95% relative humidity. Cell culture medium was replaced every other day, beginning no later than 24 hours after initial plating.
(§4) 3) Measure the electrical resistance across the monolayer by using Millicell Epithelial Volt-Ohm measuring system. Record the electrical resistance for each well. Once all wells have been measured, return the plate(s) to the incubator.
(§5) 4) TEER of each well is calculated by the equation below. The TEER value of each well should be greater than 230 ohms·cm^2.
(§6) 1) Remove the Caco-2 plate(s) from the incubator. Wash the monolayer twice with pre-warmed HBSS (10 mM HEPES, pH 7.4). Then incubate the plate(s) at 37° C. for 30 minutes.
(§7) 2) Prepare stock solutions of control compounds in DMSO at 5 mM and dilute with HBSS (10 mM HEPES, pH 7.4) to get 5 μM working solutions. Prepare stock solutions of test compounds in DMSO at 1 mM and dilute with HBSS (10 mM HEPES, pH 7.4) to get 1 μM working solutions. Digoxin is used as the reference substrate of Pgp. Atenolol is used as the low permeability marker, minoxidil is used as the high permeability marker.
(§8) 3) To determine the rate of drug transport in the apical to basolateral direction, add 100 μL of the working donor solutions (without inhibitor) to the Transwell insert (apical compartment). Fill the wells in the receiver plate (basolateral compartment) with 300 μL of transport buffer. To determine the rate of drug transport in the basolateral to apical direction, add 300 μL of the working donor solutions (without inhibitor) to the receiver plate wells (basolateral compartment). Fill the Transwell insert (apical compartment) with 100 μL of transport buffer.
(§9) 4) Transfer 50 μL samples from the working solutions to 300 μL of cold MeOH:acetonitrile=1:1 with IS (50 ng/ml Labetalol, 50 ng/ml Tolbutamide) to prepare the time 0 samples. Incubate the Transwell plate at 37° C., 5% CO2 with shaking at 60 rpm on a rotary shaker for 2 hours.
(§10) 5) At the end of the transport period, transfer 50 μL of samples from apical and basolateral wells to a new 96-well plate. Add 300 μL of quenching solution (MeOH:acetonitrile=1:1 with IS (50 ng/ml Labetalol, 50 ng/mL Tolbutamide)) into each well of the plate(s). Vortex for 10 minutes. Samples are centrifuged at 4000 rpm g for 30 minutes. An aliquot of 100 μL of the supernatant is mixed with an appropriate volume of ultra-pure water (depends on the LC-MS/MS signal response and peak shape) before LC-MS/MS analysis.
(§11) 6) To determine the Lucifer Yellow leakage after 2-hour transport period, prepare stock solutions of Lucifer yellow in DMSO and dilute with HBSS (10 mM HEPES, pH 7.4) to reach the final concentration of 100 μM. Add 100 μL of the Lucifer yellow solution to the apical compartment. Fill the basolateral compartment with 300 μL of HBSS (10 mM HEPES, pH 7.4). Incubate the plate(s) at 37° C. for 30 minutes and remove 80 μL directly from the apical and basolateral wells and transfer to new 96 wells plates. Measure Lucifer Yellow fluorescence (to monitor monolayer integrity) in a fluorescence plate reader at 485 nm excitation and 530 nm emission.
(§12) 7) Discard the remaining solution in the cell plate, Add 300 μL of quenching solution (MeOH:acetonitrile=1:1 with IS (50 ng/ml Labetalol, 50 ng/mL Tolbutamide)) into each well of the plate(s), blow up and down and mix well for 5 times. […]

in vitro [5] = conditions: cynomolgus monkey, microsomes
CYP2D6 = CYP2D6 (Homo sapiens (Human), UniProt P10635); assay: CYP isoforms inhibitory assay in human liver microsome, CYP2D6; conditions: read-out: IC50 CYP2D6, substrate dextromethorphan
Method: CYP isoforms inhibitory activities of test compounds were measured in human liver microsome.
Preparation details of these substrates are given in below table. The substrate stock solution was stored in a −20° C. freezer. Prior to use, the substrate stock solution was removed from the freezer and allowed to rise to room temperature. Then the substrate stock solution was mixed on a whirly mixer for 30 seconds.
HLMs were stored in a −80° C. freezer. Prior to use, the pooled HLM was removed from the freezer and allowed to thaw in a 37° C. water bath and then stored on wet ice.
The positive control inhibitors and their concentrations used by each isozyme are summarized below.
All samples were incubated in a 37° C. water bath, with three parallels for each concentration of the test compound and two parallels for each concentration of the positive control inhibitor. 100 μL of microsome working solution was taken and added 2 μL of the test product or positive inhibitor working solution. 2 μL solvents was added to the solvent control, and put in a water bath to pre-incubate for 10 min. After pre-incubation, 98 μL of NADPH regeneration solution was added to all samples to start the reaction. Then the mixture was put back in the water bath and incubated for a certain period of time.
The reaction was quenched by 200 μL stop solution. […]
IC50 values were determined using 3- or 4-parameter logistic equation.

[6] = system: cryopreserved hepatocytes
Method: 1) 10 mM test compounds were provided.
as §13, §14, §15, §16, §17, §18, §19, §20, §21, §22, §23, §24, §25, §26, §27, §28, §29

[7] = system: cryopreserved hepatocytes; remark: listed apart in the source
Caco-2 cell monolayer = Caco-2 cell monolayer model assay (permeability); type: in vitro ADME; conditions: Caco-2, 1 μM
Method: as §1, §2, §3, §4, §5, §6, §7, §8, §9, §10, §11, §12

[8] = Liver microsome metabolic stability (LMS) assay, dog

Chain of CYP2D6 (P10635 whole entry, canonical isoform): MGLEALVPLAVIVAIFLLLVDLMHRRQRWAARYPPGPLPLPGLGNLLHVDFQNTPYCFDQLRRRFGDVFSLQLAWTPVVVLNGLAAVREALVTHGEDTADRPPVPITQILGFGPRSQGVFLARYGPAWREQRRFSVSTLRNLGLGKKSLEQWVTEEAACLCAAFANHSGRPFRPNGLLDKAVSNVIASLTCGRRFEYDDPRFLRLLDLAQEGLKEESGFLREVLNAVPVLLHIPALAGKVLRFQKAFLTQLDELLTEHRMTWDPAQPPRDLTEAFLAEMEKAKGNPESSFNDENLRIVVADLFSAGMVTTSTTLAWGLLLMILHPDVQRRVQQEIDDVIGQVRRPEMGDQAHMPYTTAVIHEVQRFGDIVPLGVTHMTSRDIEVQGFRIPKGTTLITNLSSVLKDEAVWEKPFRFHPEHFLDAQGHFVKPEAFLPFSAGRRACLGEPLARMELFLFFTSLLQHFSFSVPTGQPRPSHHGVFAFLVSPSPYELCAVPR

**Q.** What does the source list for `CN(C(=O)c1ccc2nc(N)c3cncn3c2c1)[C@@H]1COc2cc(C(F)(F)F)ccc21` [Compound 12]?
**A.** half-life at 1 μM [1]: 1.84 h; half-life at 1 μM (in vitro [2]): > 2.42 h; half-life at 1 μM [3]: 1.86 h; efflux ratio at 2 h, 1 μM ([4]; Caco-2, pH 7.4): 1.98; Papp A→B at 2 h, 1 μM ([4]; Caco-2, 1 μM, 2 hours, pH 7.4): 6.07 ×10⁻⁶ cm/s; Papp B→A at 2 h, 1 μM ([4]; Caco-2, 1 μM, 2 hours, pH 7.4): 12 ×10⁻⁶ cm/s; half-life at 1 μM (in vitro [5]): 0.935 h

**Q.** With `CN(C(=O)c1ccc2nc(N)c3cncn3c2c1)C1COc2cc(C(F)(F)F)ccc21` (stereo not shown) [Compound 17] as the compound, how does the IC50 (CYP2D6) read?
**A.** > 30 µM

**Q.** What about the “CLint (liver) H” value [6] of the same compound?
**A.** 20.2 mL/min/kg

**Q.** And the “CLint (hep) H” value ([6]; human)?
**A.** 7.3 μL/min/10^6

**Q.** And the “T1/2 (hepatocytes) H” value ([6]; human)?
**A.** 3.18 h

**Q.** And the “CLint (liver) D” value [7]?
**A.** 46.9 mL/min/kg

**Q.** What about the “CLint (hep) D” value ([7]; dog) of the same compound?
**A.** 6.8 μL/min/10^6

**Q.** And the “T1/2 (hepatocytes) D” value ([7]; dog)?
**A.** 3.39 h

**Q.** And the “Recovery AP − BL” value (Caco-2 cell monolayer)?
**A.** 81.0%

**Q.** What about the “Recovery BL − AP” value (Caco-2 cell monolayer) of the same compound?
**A.** 85.6%

**Q.** And the “Papp (A−B)” value (Caco-2 cell monolayer; 2 hours, pH 7.4)?
**A.** 6.70 10^−6 cm/s

**Q.** What about the “Papp (B−A)” value (Caco-2 cell monolayer; 2 hours, pH 7.4) of the same compound?
**A.** 11.8 10^−6 cm/s

**Q.** And the “Efflux Ratio” value (Caco-2 cell monolayer; Papp (B-A)/Papp (A-B))?
**A.** 1.76

**Q.** Which “CLint (mic) D” value ([8]; dog liver microsome) does the source give for `CN(C(=O)c1cc2c(cn1)nc(N)c1cncn12)C1CC(F)(F)c2cc(C(F)(F)F)ccc21` (stereo not shown) [Compound 24] here?
**A.** <9.6 µL/min/mg

**Q.** What about the “T1/2 of LMS, D” value ([8]; dog liver microsome 0.5 mg protein/mL, 1 μM, NADPH) of the same compound?
**A.** >2.42 h

**Q.** What about the “CLint (liver) D” value ([8]; dog liver microsome, scaled to liver) of the same compound?
**A.** <13.8 mL/min/kg
